# PubChem BioAssay (NCI)
# Several values for one entry are separate records, joined by “and”; a condition that tells them apart may be missing. Identical values can stand only once.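 1) Cells in 96-well plates. 2) Compound, 48 h, 5 concentrations. 3) Linear interpolation between surrounding doses. 4) Unreached endpoint = highest concentration. The concentration for 50% growth inhibition is given as GI50. At the TGI there is no net growth.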
# How the values were obtained:
# Assay in all cases: NCI anticancer screen, dose series, 48 h
# OVCAR-8 ovarian = tested on: OVCAR-8 ovarian
# SF-295 CNS = tested on: SF-295 CNS
# DU-145 prostate = tested on: DU-145 prostate
# SK-MEL-2 melanoma = tested on: SK-MEL-2 melanoma
# M14 melanoma = tested on: M14 melanoma
# SNB-19 CNS = tested on: SNB-19 CNS
# MALME-3M melanoma = tested on: MALME-3M melanoma
# UACC-62 melanoma = tested on: UACC-62 melanoma
# SF-268 CNS = tested on: SF-268 CNS
# UACC-257 melanoma = tested on: UACC-257 melanoma
SMILES,GI50 (OVCAR-8 ovarian),TGI (OVCAR-8 ovarian),GI50 (SF-295 CNS),TGI (SF-295 CNS),GI50 (DU-145 prostate),TGI (DU-145 prostate),GI50 (SK-MEL-2 melanoma),TGI (SK-MEL-2 melanoma),GI50 (M14 melanoma),TGI (M14 melanoma),GI50 (SNB-19 CNS),TGI (SNB-19 CNS),GI50 (MALME-3M melanoma),TGI (MALME-3M melanoma),GI50 (UACC-62 melanoma),TGI (UACC-62 melanoma),GI50 (SF-268 CNS),TGI (SF-268 CNS),GI50 (UACC-257 melanoma),TGI (UACC-257 melanoma)
c1cc2[nH]ncc2cc1-c1nc2ccc3[nH]ncc3c2c2c1CCCC2,2.66 µM,15.9 µM,1.84 µM,7.58 µM,2.27 µM,11.2 µM,0.509 µM,2.15 µM,0.523 µM,10.8 µM,2.35 µM,11 µM,1.08 µM,4.22 µM,0.425 µM,3.53 µM,2.31 µM,14 µM,1.67 µM,8.21 µM
CS(=O)(=O)Nc1ccc(-c2cc(-c3ccccc3)cc(C(N)=O)c2N)cc1,> 22.6 µM,> 25 µM,24.6 µM,> 25 µM,> 25 µM,> 25 µM,> 25 µM,> 25 µM,> 25 µM,> 25 µM,> 25 µM,> 25 µM,> 25 µM,> 25 µM,> 25 µM,> 25 µM,> 25 µM,> 25 µM,> 25 µM,> 25 µM
C=CC(=O)NCc1cccc(Nc2ncc(Br)c(NCCCNC(=O)C3CCC3)n2)c1,1.99 µM and 1.72 µM,12.5 µM and > 25 µM,1.1 µM and 1.32 µM,8.36 µM and 16.8 µM,1.25 µM and 1.36 µM,12.5 µM and 19.4 µM,2.17 µM and 2.93 µM,5.57 µM and 7.08 µM,1.86 µM and 1.19 µM,10.2 µM and 5.91 µM,1.07 µM and 1.38 µM,12.5 µM and 18.3 µM,1.62 µM and 1.68 µM,5.78 µM and 6.56 µM,2.3 µM and 2.9 µM,5.23 µM and 7.37 µM,0.297 µM and 0.296 µM,2.57 µM and 4.07 µM,2.57 µM and 3.46 µM,12.5 µM and 20.6 µM
O=[N+]([O-])c1ccccc1N/N=C\c1c[nH]c2ccccc12,12 µM,29.4 µM,9.5 µM,33 µM,27.6 µM,> 100 µM,26.4 µM,> 100 µM,34.7 µM,> 100 µM,24.9 µM,> 100 µM,28.8 µM,> 87.1 µM,17.1 µM,> 100 µM,9.04 µM,> 100 µM,26.4 µM,> 100 µM
Clc1ccc2c(c1)N(CCCN1CCCC1)c1ccccc1S2,9.64 µM,23.4 µM,6.83 µM,21.6 µM,8.61 µM,20.9 µM,10.8 µM,23.9 µM,1.92 µM,3.97 µM,9.63 µM,28.1 µM,3.98 µM,18.5 µM,10.2 µM,25.2 µM,5.75 µM,20.7 µM,11.4 µM,23.8 µM
CCCCCCCCN(CCCCCCCC)CCCCCCNc1cc(OC)cc2cccnc12,3.39 µM,12.4 µM,14 µM,29.3 µM,2.1 µM,4.52 µM,5.8 µM,19.1 µM,3.33 µM,12.4 µM,10.5 µM,24.2 µM,6.92 µM,21.9 µM,16.9 µM,31.4 µM,12.7 µM,30 µM,2.2 µM,5.62 µM
C=CC(C1=CC(=O)C(OC)=CC1=O)c1ccccc1 (stereo not given),–,58.7 µM,–,27.6 µM,–,30.2 µM,–,30.3 µM,–,37.7 µM,–,29.4 µM,–,28.7 µM,–,29 µM,–,41.3 µM,–,34.8 µM
CC(=O)c1cc(C(=O)c2ccc3c(c2)Sc2ccccc2N3)c2c(C)cc(C)cn12,0.405 µM,> 100 µM,0.187 µM,0.94 µM,0.395 µM,> 47.3 µM,0.317 µM,> 100 µM,0.253 µM,> 100 µM,0.443 µM,> 100 µM,5.73 µM,> 100 µM,0.254 µM,> 100 µM,0.533 µM,> 46.3 µM,2.04 µM,> 100 µM
O=C(/C(=C\c1ccc([N+](=O)[O-])cc1)S(=O)Cc1ccc(F)cc1)c1ccc(F)cc1 (stereo not given),2.17 µM,5.34 µM,1.68 µM,3.72 µM,1.66 µM,3.06 µM,2.2 µM,5.47 µM,1.79 µM,3.76 µM,2.37 µM,5.61 µM,1.64 µM,3.55 µM,1.71 µM,3.25 µM,2.11 µM,5.34 µM,1.79 µM,3.73 µM
CC1=CC(=C(c2ccc(N)cc2)c2ccc(N)cc2)C=CC1=N,0.759 µM and 1.51 µM,34.5 µM and 31.4 µM and 12.4 µM,1.03 µM and 1.32 µM,5.82 µM and 7.65 µM and 6.06 µM,2.07 µM and 3.92 µM,15.2 µM and > 40.3 µM and 14.2 µM,2.32 µM and 2.71 µM,7.73 µM and 12.2 µM and 5.84 µM,0.867 µM and 3.79 µM,5.25 µM and 17.7 µM and 15.3 µM,0.494 µM,14.4 µM and 20.1 µM and 28.1 µM,0.771 µM,6.18 µM and 11.2 µM and 11.7 µM,1.3 µM and 3.09 µM,5.53 µM and 18.3 µM and 16.1 µM,0.668 µM,14.4 µM and 19.4 µM and 14.5 µM,2.4 µM and 3.1 µM,14.4 µM and 19 µM and 10.7 µM
Cc1ccc(C(SCC(N)C(=O)O)(c2ccc(C)cc2)c2ccc(C)cc2)cc1 (stereo not given),2.36 µM,17.4 µM,1.29 µM,10.3 µM,2.45 µM,5.59 µM,2.72 µM,20.5 µM,0.729 µM,2.37 µM,4.97 µM,30.2 µM,11.6 µM,26 µM,1.03 µM,13.8 µM,1.89 µM,19.5 µM,6.18 µM,26.7 µM
Cc1cc(O)ccc1C1=NN(c2ccc(S(C)(=O)=O)cc2)C(=O)CC1,12.3 µM,> 100 µM,2.87 µM,12.4 µM,24.7 µM,> 100 µM,3.48 µM,32.8 µM,3.85 µM,> 100 µM,50.4 µM,> 100 µM,5.37 µM,> 100 µM,4 µM,> 100 µM,40 µM,> 100 µM,5.65 µM,> 100 µM
CC(C)(C)C(=O)OCOP(=O)(OCOC(=O)C(C)(C)C)C1CC(O)N(O)C1=O (stereo not given),4.73 µM,> 100 µM,15.7 µM,> 100 µM,6.7 µM,> 100 µM,5.14 µM,92.1 µM,8.44 µM,> 100 µM,2.37 µM,7.33 µM,2.82 µM,> 100 µM,2.37 µM,7.4 µM,3.54 µM,> 100 µM,> 100 µM,> 100 µM
CC1(C)CCC2=C(O1)c1ccccc1C(=O)C2=O,0.53 µM,2.27 µM and 1.59 µM,1.67 µM,3.1 µM and 1.68 µM,1.71 µM,3.08 µM and 1.4 µM,2.05 µM,4.13 µM and 3.07 µM,1.69 µM,3.31 µM and 0.801 µM,1.6 µM and 1.71 µM,3.08 µM and 3.11 µM,1.51 µM,2.84 µM and 0.974 µM,1.79 µM,3.3 µM and 0.957 µM,1.44 µM,3.32 µM and 1.83 µM,1.56 µM,3.05 µM and 0.429 µM
O=C1C(=O)c2c(nc3ccc(Br)cn23)-c2ccccc21,0.575 µM,1.68 µM,1.61 µM,3.02 µM,0.483 µM,1.03 µM,0.596 µM,1.99 µM,0.489 µM,1.02 µM,1.41 µM,2.72 µM,0.19 µM,0.371 µM,0.365 µM,1.27 µM,0.543 µM,1.97 µM,0.747 µM,2.09 µM
Cc1ccccc1-n1ncc(C(=O)c2ccccc2)c1N,> 25 µM,> 25 µM,> 25 µM,> 25 µM,> 25 µM,> 25 µM,> 25 µM,> 25 µM,> 25 µM,> 25 µM,> 25 µM,> 25 µM,> 25 µM,> 25 µM,> 25 µM,> 25 µM,> 25 µM,> 25 µM,> 25 µM,> 25 µM
COc1ccc2c(CN3CCC(C(=O)O)CC3)cc3cc4c(cc3c2c1)OCO4,1.28 µM,4.86 µM,2.39 µM,10.1 µM,3.87 µM,> 100 µM,1.48 µM,3 µM,2.11 µM,4.94 µM,3.35 µM,22.6 µM,1.58 µM,3.45 µM,1.59 µM,3.03 µM,3.67 µM,25.4 µM,1.85 µM,3.54 µM
CC1COc2c(N3CCN(C)CC3)c(F)cc3c(=O)c(C(=O)O)cn1c23 (stereo not given),> 100 µM,> 100 µM,> 100 µM,> 100 µM,> 100 µM,> 100 µM,> 100 µM,> 100 µM,> 100 µM,> 100 µM,> 100 µM,> 100 µM,> 100 µM,> 100 µM,> 100 µM,> 100 µM,> 100 µM,> 100 µM,> 100 µM,> 100 µM
